Assay results taken from US20250170124A1, “METHODS OF DIAGNOSING AND TREATING NEURODEGENERATIVE DISEASES” (The General Hospital Corporation, priority 2022, published 2025).
Like-named read-outs stand apart in the source and are kept apart here.

Experiments:
SNCA IRE = assay: Spinach fluorescent assay, SNCA IRE fluorescence sensor R7
[1] = tested on: alpha-synuclein 5′-UTR IRE (SNCA 5′UTR); assay: Primary screen/retest: ASYN 5′-UTR IRE-driven luciferase expression in H4 cells; format: cell-based, human; conditions: Homo sapiens, 48 h
PGL3 5′UTR = assay: Secondary (counterscreen) luciferase assay in H4-C cells, IRE stem-loop removed; format: cell-based, human; conditions: versus SNCA 5′UTR
α-Synuclein [2] = assay: Western blots of α-syn in iPSC derived DA neuron lysates; format: cell-based, human; conditions: 72 h
alpha-synuclein = assay: ELISA secondary screen for alpha-synuclein in SH-SY5Y cells; format: cell-based, human; parameters: Decrease syn(%) SHSY5Y cells: unit of the concentration uncertain
Protocol: FIG. 2 illustrates the results of ELISA experiments with compound 10 in SH-SY5Y cells. […]
FIG. 18 illustrates alpha Synuclein ELISA (Invitrogen) measurements from SHSY5 undifferentiated neurons treated with the indicated doses (triplicate wells) of compounds 2, 13, 11, 14, 15, and 16) for 48 h.
A human ASYN ELISA kit was utilized for all ELISA experiments (Invitrogen alpha-synuclein ELISA kit KHB0061) and the kit protocol was followed.
1) Plate SH-SY5Y […] cells (Corning, 3570) at 10,000 cells/well in 50 μL phenol red free media (phenol red-free DMEM with 4.5 g/L D-glucose [Lonza, 12-917F] supplemented with 10% FBS [Lonza, 14-503E], 200 μM L-glutamine [Lonza, 17-605E], 100 μM penstrep [Lonza, 17-602E] and 200 μg/mL geneticin [Invitrogen, 10131-027]).
2) Lid plates, then incubate cells for 24 hours at 37° C., 5% CO2, 95% humidity in a tissue culture incubator.
3) Pin 100 nL of each compound into the assay plates spanning a final concentration range from 100-0.006 μM.
4) Incubate plates for 48 h at 37° C., 5% CO2, 95% humidity. Following incubation, add 5 μL of Alamar blue solution per well and allow to incubate for 1 h at 37° C., 5% CO2, 95% humidity.
5) Read Alamar blue fluorescence using a Thermo Varioskan (570 nm excitation, 585 nm emission). Remove cell media and add 30 μL cell lysis solution with protease inhibitor (G Biosciences, 786-331; 10 μL/mL).
6) Place plates on a plate shaker for 1 h, before removing 20 μL lysate. Transfer cell lysates to 500 μL Eppendorf tubes and centrifuge (Eppendorf Centrifuge 5417C) for 10 min at 13,000 rpm.
7) Add 12 μL of the cell supernatant to 48 μL of standard diluent buffer (1:5). Add these samples to ELISA plate wells. Prepare ASYN standard curve wells as described in the kit manual.
8) Add 50 μL of anti-α-Synuclein (Detection Antibody) solution to each well, tapping the plate to mix. Cover the plate with a tape seal and incubate for 3 h at RT.
9) Wash wells four times with wash buffer using a multichannel pipette and add 100 μL of anti-rabbit IgG-HRP antibody solution to each well. Cover the plate and incubate for 30 min at RT. Wash wells four times with wash buffer and add 100 μL of Stabilized Chromogen to each well. Seal the plate and incubate in the dark at RT for 30 min.
10) Finally, add 100 μL of Stop Solution to each well, tapping the plate to mix, and read absorbance at 450 nm using an Envision plate reader (Perkin Elmer).

α-Synuclein [3] = assay: Decrease of α-syn in iPSC derived DA neurons; format: cell-based, human; parameters: Decrease syn(%) DA neurons: dose or concentration left out as unconfirmed
α-Syn = assay: Decrease of α-syn in Triple SNCA cortical neurons; conditions: Table 2; concentration not given
[4] = tested on: PrP-5′UTR (prion protein IRE); format: cell-based, human; conditions: versus SNCA 5′UTR
[5] = tested on: α-Syn in tyrosine hydroxylase positive (TH+) neurons; assay: Immunocytochemical quantitation of α-Syn in TH+ SNCA+ neurons; format: cell-based; conditions: low dose; decreased from 30 %
Text: FIG. 14 illustrates that immunocytochemical quantitation of effect of Compound 2 on α-Syn expression in tyrosine hydroxylase positive (TH+) α-synuclein positive (SNCA+) neurons. Panel A: antibody stains for TH and α-Syn. TH positive cells were counted. TH positive and SNCA positive cells were counted. The quantification was done by collecting 9 image fields/well with 3 wells/condition Panel B. The images were fed into Cell Profiler (Broad software).

Structure (SMILES): COc1ccc(N(CC(=O)Nc2cc(Cl)ccc2OC)S(=O)(=O)c2c(C)noc2C)cc1 [Compound 2, N-(5-chloro-2-methoxyphenyl)-2-((N-(4-methoxyphenyl)-3,5-dimethylisoxazole)-4-sulfonamido)acetamide]
- binding to SNCA IRE (fluorescence of sensor R7) (SNCA IRE): significant increases in binding
- IC50 ([1]; read-out: IC50/M (SNCA 5′UTR)): 5.8 µM
- IC50 ([1]; read-out: IC50/μM (SNCA 5′UTR)): 5.8 µM
- Selectivity PGL3 5′UTR (PGL3 5′UTR; Table 2): 21-fold
- Selectivity PGL3 5′UTR (PGL3 5′UTR; Table 3): 21-fold
- inhibition of α-Synuclein protein expression versus β-Syn, γ-Syn, Ferritin, APP and Prion proteins (α-Synuclein [2]; 1 μM, normalized to β-Actin): selectively inhibit
- α-syn levels (Western blot) (α-Synuclein [2]; 10 μM and 1 μM compound, β-actin standardized, N=3): reduced
- Decrease αsyn(%) SHSY5Y cells (alpha-synuclein; Table 2, @ 0.1 μM): 25-50 @ 0.1%
- Decrease syn(%) SHSY5Y cells (alpha-synuclein; Table 3, @ 0.1 µM): 25-50 @ 0.1M %
- Decrease αsyn(%) DA neurons (α-Synuclein [3]; Table 2, @ 1 μM): 60 @ 1 μM %
- Decrease syn(%) DA neurons (α-Synuclein [3]; Table 3): 60 @ 1M %
- Decrease αsyn(%) X3 SNCA neurons (α-Syn): 50%
- Selectivity PrP-5′UTR ([4]; Table 2): 18-fold
- Selectivity PrP-5′UTR ([4]; Table 3): 18-fold
- number of TH/SNCA positive cells [5]: 18%
